The data set can be described thus: Stability in simulated intestinal fluid. In kind it is physicochemical.

Structures are written as SMILES.

Take `CC[C@H]1OC(=O)[C@H](C)[C@@H](O[C@H]2C[C@@](C)(OC)[C@@H](O)[C@H](C)O2)[C@H](C)[C@@H](O[C@@H]2O[C@H](C)C[C@H](N(C)C)[C@H]2O)[C@](C)(O)C[C@@H](C)C(=O)[C@H](C)[C@@H](O)[C@]1(C)O` [erythromycin]: the half-life (in general, the time needed for the level to fall by half in the phase considered) was 478 min.

(Values after PMC10794885 (RSC Advances, 2024).)
